From patent publication US20100190846A1, “MICROBICIDAL AGENT AND MICROBICIDAL COMPOSITION” (priority 2006, published 2010)
Entries after “also recorded” stand apart in the source; their conditions may differ.

What was measured:
Yersinia enterocolitica = assay: Paper disk method microbicidal test; type: cell-based; settings: 0 mg/mL control: 15.65 (flavone, 40% DMSO), — (catechin)
Experimental: (§1) As microbicidal test method for 5,7,4′-trihydroxy-3′,5′-dimethoxyflavone, the paper disk method was employed, by which method the microbicidal activity can be judged even in cases where a solvent has some influences.
(§2) In paper disk method, sample solutions having various sample concentration are prepared, and the sample solution was absorbed in a special paper disk, followed by drying the paper disk. Onto the plate which is made by mixing a prepared bacterial suspension with agar medium, the paper disks are placed. If the sample has a microbicidal activity, the inhibition ring which indicates the inhibition of bacterial growth is formed such that the center of the ring is coincident with the paper disk. The degree of a microbicidal activity is judged based on the size of the inhibition ring.
(§3) First, 4 mg of 5,7,4′-trihydroxy-3′,5′-dimethoxyflavone sample was dissolved in 200 μL to prepare 20 mg/mL sample solution. To 100 μL of this 20 mg/mL sample solution, 100 μL of sterilized water was added to prepare 200 μL of 10 mg/mL sample solution. To the solution, 60 μL DMSO and 140 μL of sterilized water were added to prepare 400 μL of 5.0 mg/mL sample solution. DMSO was used in the concentration of 40%, because the sample precipitated from 30% DMSO. To 350 μL of 5.0 mg/mL sample solution, 140 μL DMSO and 210 μL of sterilized water were added to prepare 700 μL of 2.5 mg/mL sample solution. In the same manner, 1.25 mg/mL and 0.625 mg/mL sample solutions were prepared. As a control, a solution containing 40% DMSO and 60% sterilized water was prepared. […] In a paper disk (8.12 mm diameter), 70 μL of these solutions each was absorbed, and the paper disks were dried for a day.
(§4) As test bacteria, Staphylococcus aureus, Salmonella sp., Yersinia enterocolitica, Pseudomonas aeruginosa, and Candida sp. were used. These bacteria were mixed with 2 mL of sterilized water to prepare bacterial suspensions having turbidity 1 (10^8/mL). The plate agar was made by mixing 0.2 mL of the bacterial suspension with 19.8 mL of BHI medium. The dried paper disk was placed onto the plate agar, and the plate was incubated in an incubator at 37° C., followed by assessing the activity. In the Table, (-) represents that no microbicidal activity was observed.

Salmonella sp. = assay: Paper disk method microbicidal test; type: cell-based; settings: for size of the inhibition ring: 0 mg/mL control: 12.35 (flavone, 40% DMSO), — (catechin)
Experimental: as §1, §2, §3, §4

Pseudomonas aeruginosa = assay: Paper disk method microbicidal test; type: cell-based; settings: for size of the inhibition ring: 0 mg/mL control: 12.33 (flavone, 40% DMSO), — (catechin)
Experimental: as §1, §2, §3, §4

Candida sp. = assay: Paper disk method microbicidal test; type: cell-based; settings: 0 mg/mL control: 11.86 (flavone, 40% DMSO), — (catechin)
Experimental: as §1, §2, §3, §4

[1] = Solubility in DMSO observed during sample preparation; type: physicochemical; settings: 30% DMSO; 40% DMSO used instead
Experimental: First, 400 mg of sample was dissolved in 1 mL of DMSO to prepare 400 mg/mL sample solution. Then 0.5 mL of this 400 mg/mL sample solution was diluted 2-fold to prepare 200 mg/mL sample solution. In the same manner, sample solutions of 100 mg/mL, 50.0 mg/mL, and 25.0 mg/mL were prepared. In addition, 300 mg/mL sample solution was prepared. Thereafter, 0.2 mL of these sample solutions each was mixed with 19.8 mL of BHI (Brain Heart Infusion Agar, Becton Dickinson, MD) medium, thereby preparing agar plates having the sample concentration of 4.0 mg/mL, 3.0 mg/mL, 2.0 mg/mL, 1.0 mg/mL, 0.5 mg/mL, and 0.25 mg/mL in dishes. […] Sterilized water was used for dissolving catechin, because catechin was insoluble in DMSO.
First, 4 mg of 5,7,4′-trihydroxy-3′,5′-dimethoxyflavone sample was dissolved in 200 μL to prepare 20 mg/mL sample solution. To 100 μL of this 20 mg/mL sample solution, 100 μL of sterilized water was added to prepare 200 μL of 10 mg/mL sample solution. To the solution, 60 μL DMSO and 140 μL of sterilized water were added to prepare 400 μL of 5.0 mg/mL sample solution. DMSO was used in the concentration of 40%, because the sample precipitated from 30% DMSO. To 350 μL of 5.0 mg/mL sample solution, 140 μL DMSO and 210 μL of sterilized water were added to prepare 700 μL of 2.5 mg/mL sample solution. In the same manner, 1.25 mg/mL and 0.625 mg/mL sample solutions were prepared. […]

[2] = 0.625 mg/mL solution on 8.12 mm paper disk
[3] = 1.25 mg/mL solution on 8.12 mm paper disk
[4] = 2.5 mg/mL solution on 8.12 mm paper disk

For `COc1cc(-c2cc(=O)c3c(O)cc(O)cc3o2)cc(OC)c1O` [5,7,4′-Trihydroxy-3′,5′-Dimethoxyflavone, 5,7,4′-trihydroxy-3′,5′-dimethoxyflavone], the “size of the inhibition ring” value (Yersinia enterocolitica; [2]) was 15.67, the “size of the inhibition ring” value (Yersinia enterocolitica; [3]) was 15.76 and the “size of the inhibition ring” value (Yersinia enterocolitica; [4]) was 15.76. For the same compound, the “size of the inhibition ring” value (Salmonella sp.; [2]) was 12.35, the “size of the inhibition ring” value (Salmonella sp.; [3]) was 13.82 and the “size of the inhibition ring” value (Salmonella sp.; [4]) was 16.65. For the same compound, the “microbicidal activity (in words)” value (Salmonella sp.; paper disk method) was “had a microbicidal activity; also recorded: very strong even compared to catechin”, the “size of the inhibition ring” value (Pseudomonas aeruginosa; [2]) was 15.46 and the “size of the inhibition ring” value (Pseudomonas aeruginosa; [3]) was 18.54. The “size of the inhibition ring” value (Pseudomonas aeruginosa; [4]) was 19.20, the “microbicidal activity (in words)” value (Pseudomonas aeruginosa; paper disk method) was “had a microbicidal activity; also recorded: very strong even compared to catechin” and the “size of the inhibition ring” value (Candida sp.; [2]) was 11.86. The “size of the inhibition ring” value (Candida sp.; [3]) was 12.30, the “size of the inhibition ring” value (Candida sp.; [4]) was 11.90 and the “solubility in aqueous DMSO” value [1] was “precipitated”.
